Values of other authors as cited in PubChem BioAssay AID1259410 (Chemical Carcinogenesis Research Information System (CCRIS), 2018).

Tested on: rodent tumor promotion studies, tumor incidence
Assay: CCRIS tumor promotion studies

## CCO
Carcinogen: 1,2-DIMETHYLHYDRAZINE [540-73-8], Doses [Carcinogen]: 21 MG/KG WEEKLY FOR 18 WKS, Doses [Promoter]: 1.23 G/KG ADDED TO DRINKING WATER DAILY FOR 25-27 WKS, Route [Carcinogen]: SUBCUTANEOUS, Route [Promoter]: ORAL (DRINKING WATER), Species: RAT, Strain/Sex: SPRAGUE-DAWLEY/MALE, FEMALE
  outcome: negative
Carcinogen: 1,2-DIMETHYLHYDRAZINE, 540-73-8, Doses [Carcinogen]: 30 MG/KG BW 1/WK FOR 4 WK, Doses [Promoter]: 0, 6.6% OF LIQUID DIET BEGINNING 4 WK PRIOR TO CARCINOGEN TREATMENT LIQUID DIETS SUSPENDED FOR 3 WK DURING CARCINOGEN TR, Route [Carcinogen]: SUBCUTANEOUS, Route [Promoter]: ORAL, Species: RAT, Strain/Sex: SPRAGUE-DAWLEY/MALE
  outcome: rectum: tumors
Carcinogen: 4-(METHYLNITROSAMINO)-1-(3-PYRIDYL)-1-BUTANONE, 64091-91-4, Doses [Carcinogen]: 0, 50 MG/KG IN DISTILLED WATER ADMINISTERED INTRATRACHEALLY TO MOTHERS ON DAY 15 OF GESTATION, Doses [Promoter]: 10% IN DRINKING WATER ADMINISTERED IN DRINKING WATER TO MOTHERS ON DAYS 5 THROUGH 16 OF PREGNANCY (STUDY DURATION: 48 WK, Route [Carcinogen]: TRANSPLACENTAL, Route [Promoter]: TRANSPLACENTAL, Species: HAMSTER, Strain/Sex: SYRIAN/FEMALE
  outcome: nasal cavity: tumor; pancreas: tumor; adrenal gland: tumor
Carcinogen: 4-(METHYLNITROSAMINO)-1-(3-PYRIDYL)-1-BUTANONE, 64091-91-4, Doses [Carcinogen]: 0, 50 MG/KG IN DISTILLED WATER ADMINISTERED INTRATRACHEALLY TO MOTHERS ON DAY 15 OF GESTATION, Doses [Promoter]: 10% IN DRINKING WATER ADMINISTERED IN DRINKING WATER TO MOTHERS ON DAYS 5 THROUGH 16 OF PREGNANCY (STUDY DURATION: 48 WK, Route [Carcinogen]: TRANSPLACENTAL, Route [Promoter]: TRANSPLACENTAL, Species: HAMSTER, Strain/Sex: SYRIAN/MALE
  outcome: pancreas: tumor; adrenal gland: tumor
Carcinogen: 4-(METHYLNITROSAMINO)-1-(3-PYRIDYL)-1-BUTANONE, 64091-91-4, Doses [Carcinogen]: 20 MMOL/KG (TOTAL DOSE) 3/WK FOR 4 WK, Doses [Promoter]: 0, 7% (V/V) IN LIQUID DIET FOR 50 WK BEGINNING 1 WK POST CARCINOGEN TREATMENT (STUDY DURATION: 55 WK), Route [Carcinogen]: GAVAGE, Route [Promoter]: ORAL, Species: RAT, Strain/Sex: F344/MALE
  outcome: esophagus: tumor; oral cavity: tumor; lung: tumor
Carcinogen: 7,12-DIMETHYLBENZ[A]ANTHRACENE, 57-97-6, Doses [Carcinogen]: 1% PAINTED ON RIGHT BUCCAL POUCH 1/2 D FOR 1 WK, Doses [Promoter]: 0, 5% IN LIQUID DIET BEGINNING 1 WK POST CARCINOGEN TREATMENT AND CONTINUING FOR 35 WK (STUDY DURATION: 35 WK), Route [Carcinogen]: MUCOUS MEMBRANE, Route [Promoter]: ORAL, Species: HAMSTER, Strain/Sex: SYRIAN/MALE
  outcome: buccal pouch: epidermoid carcinoma
Carcinogen: 17ALPHA-ETHYNYLESTRADIOL, 57-63-6, NORETHINDRONE ACETATE, 51-98-9, Carcinogen: 17ALPHA-ETHYNYLESTRADIOL, 57-63-6, NORETHINDRONE ACETATE, 51-98-9, Doses [Carcinogen]: 0.075 MG EE AND 6 MG NA IN 0.5 ML OLIVE OIL 1/D FOR 12 MO, Doses [Promoter]: 0, 10% IN DRINKING WATER 5 D/WK FOR 12 MO (STUDY DURATION: 12 MO), Route [Carcinogen]: GAVAGE, GAVAGE, Route [Promoter]: ORAL, Species: RAT, Strain/Sex: WISTAR/FEMALE
  outcome: liver: hepatocellular carcinoma
Carcinogen: DIETHYLNITROSAMINE, 55-18-5, Doses [Carcinogen]: 33, 50 PPM IN DRINKING WATER FOR 8 WK, Doses [Promoter]: 10% IN DRINKING WATER FOR 8 WK ADMINISTERED WITH CARCINOGEN (STUDY DURATION: 104 WK), Route [Carcinogen]: ORAL, Route [Promoter]: ORAL, Species: RAT, Strain/Sex: F344/MALE
  outcome: esophagus: papilloma or carcinoma
Carcinogen: Diethylnitrosamine, 55-18-5, Doses [Carcinogen]: 40 mg/l for 4 consecutive d/wk for 180 days, study duration 180 d, Doses [Promoter]: 6%, 3 d /wk for 180 d, study duration 180 d, Route [Carcinogen]: Oral (drinking water), Route [Promoter]: Oral (drinking water), Species: Mouse, Strain/Sex: CF1/Female (16, 47/Group)
  outcome: stomach: squamous cell carcinoma (33% vs 30%); adenocarcinoma (17% vs 15%); both
Carcinogen: METHYLAZOXYMETHANOL ACETATE, 592-62-1, Doses [Carcinogen]: 25 MG/KG IN SALINE 1/WK FOR 2 WK, Doses [Promoter]: 0.10% IN DRINKING WATER FOR 393 D BEGINNING 1 WK POST CARCINOGEN DOSE (STUDY DURATION: 414 D), Route [Carcinogen]: INTRAPERITONEAL, Route [Promoter]: ORAL, Species: RAT, Strain/Sex: ACI/MALE
  outcome: large intestine: adenoma, adenocarcinoma
Carcinogen: N6-(METHYLNITROSO)ADENOSINE, 21928-82-5, Doses [Carcinogen]: 180 MG/KG 3/WK FOR 12 WK, Doses [Promoter]: 0, 15% 3/WK FOR 12 WK ADMINISTERED WITH CARCINOGEN (STUDY DURATION: 18 MO), Route [Carcinogen]: GAVAGE, Route [Promoter]: GAVAGE, Species: MOUSE, Strain/Sex: SWISS/FEMALE
  outcome: thymus: lymphoma
Carcinogen: N'-NITROSONORNICOTINE, 16543-55-8, Doses [Carcinogen]: 40 MMOL/KG (TOTAL DOSE) 3/WK FOR 4 WK, Doses [Promoter]: 0, 7% (V/V) IN LIQUID DIET FOR 50 WK BEGINNING 1 WK POST CARCINOGEN TREATMENT (STUDY DURATION: 55 WK), Route [Carcinogen]: GAVAGE, Route [Promoter]: ORAL, Species: RAT, Strain/Sex: F344/MALE
  outcome: esophagus: tumor; oral cavity: tumor; lung: tumor
